One data set has as its system HaCaT cells. As to the kind of experiment: MTT cytotoxicity assay on HaCaT keratinocytes. In kind it is cell-based, human. The protocol:
HaCaT keratinocyte cells were exposed to chemical compounds at nine different concentrations (from 3.9 to 995.6 µg/mL) in four replicates of each concentration for 24 and 48 h.
All compounds were dissolved in sterile DMSO (Merck Life Science, Warsaw, Poland) and were sterile-filtered with 0.22 µm pore size sterile disposable syringe filters.
HaCaT cell line (the normal immortalised human keratinocytes) used in the study derived from the 35th passage (the original material created by Prof. Dr. Petra Boukamp and Dr. Norbert Fusenig) was purchased from Cell Line Service GmbH (Eppelheim, Germany). The cells were cultured and propagated as described previously.
The cytotoxicity was assessed with MTT assay according to methodology applied previously.
The following final concentrations (in four replicates per experiment) of the test compounds were tested (µg/mL): 3.9; 7.8; 15.6; 31.1; 62.2; 124.5; 248.9; 497.8, and 995.6. […] Three independent experiments were conducted. The vehicle was cells in the culture medium. The assay was conducted for 24 h and 48 h.

In data set [1] the test system is Listeria monocytogenes ATCC 19111. Put plainly: Antagonistic activity, diffusion-well method. In kind it is cell-based. The settings on record: ATCC19111, compounds at 2.5 µM, wells 8 mm, 37 °C, 18 h. The protocol: (§1) The antimicrobial activity of the HESP, ligands ([…], and HTSC), and complexes with HP-β-CD were tested against Gram-positive bacteria (Listeria monocytogenes ATCC 19111, Listeria monocytogenes ATCC 19112, Listeria monocytogenes ATCC 19115, Staphylococcus aureus ATCC 29737, Staphylococcus aureus ATCC 25923, Staphylococcus aureus ATCC 27734) and Gram-negative bacteria (Escherichia coli ATCC 11303, Escherichia coli ATCC 35218, Salmonella Typhimurium, ATCC 14028, Salmonella Enteritidis ATCC 13076, Salmonella Choleraesuis ATCC 7001). The strains were activated from cryobanks by passaging them twice onto a Nutrient Broth (Merck, Darmstadt, Germany). All bacteria were grown for 24 h at 37 °C. Antagonistic activity of the following chemical compounds: […], and […] determined by the diffusion-well method. The test strains were plated on Mueller-Hinton Agar (Merck, Darmstadt, Germany) in the form of a surface layer of bacteria according to the procedures recommended by the European Committee on Antimicrobial Susceptibility Testing EUCAST [74]. The detailed methodology was described in the paper by Sykuła et al.. Bacterial inoculum was prepared from an overnight solid culture. The inoculum density was 1-2 × 10^8 CFU/mL, which corresponds to a McFarland standard of 0.5. The samples of the test compounds were dissolved in 5% (w/w) DMSO to obtain a concentration of 500 μM, and were sterilized using filtration (filter pore width 0.2 μm; (Sartorius AG, Gottingen, Germany). The bacteria inoculum test culture (0.1 mL) smear conducted was on sterile Mueller-Hinton Agar (Merck, Darmstadt, Germany) plates. […] A total of 50 μL of the prepared solutions of the tested compounds at a concentration of 500 μM were added to the wells. The plates prepared in this way were incubated at 37 °C for 18 h. After this time, zones of growth inhibition were read and the result was given in mm. The experiment was carried out in two independent repetitions. The results were expressed in average values and standard deviation. The results were analyzed using a one-way ANOVA and post-hoc Tukey's test.

Data set [2] has as its system Listeria monocytogenes ATCC 19112. Put plainly: Antagonistic activity, diffusion-well method. As to conditions: ATCC19112, compounds at 2.5 µM, wells 8 mm, 37 °C, 18 h. In kind it is cell-based. The procedure:
as §1

Data set [3] deals with Listeria monocytogenes ATCC 19115. As to the kind of experiment: Antagonistic activity, diffusion-well method. In kind it is cell-based. The settings on record: ATCC19115, compounds at 2.5 µM, wells 8 mm, 37 °C, 18 h. The protocol: as §1
Data set [4] has as its system Salmonella Choleraesuis ATCC 7001. Put plainly: Antagonistic activity, diffusion-well method. In kind it is cell-based. As to conditions: Salmonella enterica, compounds at 2.5 µM, wells 8 mm, 37 °C, 18 h. The procedure: as §1
In data set [5] the test system is Salmonella Enteritidis ATCC 13076. As to the kind of experiment: Antagonistic activity, diffusion-well method. In kind it is cell-based. As to conditions: Salmonella enterica, compounds at 2.5 µM, wells 8 mm, 37 °C, 18 h. The protocol: as §1
The subject of data set [6] is Salmonella Typhimurium ATCC 14028. As to the kind of experiment: Antagonistic activity, diffusion-well method. In kind it is cell-based. The settings on record: Salmonella enterica, compounds at 2.5 µM, wells 8 mm, 37 °C, 18 h. The protocol:
as §1

The test system of data set [7] is Staphylococcus aureus ATCC 27734. Put plainly: Antagonistic activity, diffusion-well method. In kind it is cell-based. The settings on record: ATCC27734, compounds at 2.5 µM, wells 8 mm, 37 °C, 18 h. The procedure:
as §1

For data set [8], the system named is Escherichia coli ATCC 11303. Put plainly: Minimal inhibition concentration (dilution + diffusion-well). As to conditions: ATCC11303, 37 °C, 18 h. In kind it is cell-based. The procedure: (§2) The MIC was performed for compounds and strains sensitive to their action in the antagonistic test. Minimum inhibitory concentration was determined by combining the dilution method with the diffusion-well method. Test compounds at a concentration of 500 μM were prepared in 5% (w/w) DMSO. Surface layer of microorganisms, against which antagonistic activity was noted, were prepared in the same way as for the antagonistic test. Then, two-fold sequential dilutions of the test compounds in the range of 500 µM to 62.5 µM were prepared. Wells with a diameter of 8 mm cut in the Mueller–Hinton Agar (Merck, Darmstadt, Germany) with the test strain were added with 50 µL of the prepared dilutions, which corresponded to the following concentrations of the tested compounds: […], 1.25 mM, 0.625 mM, and […]. Petri dishes prepared in this way were incubated at 37 °C for 18 h. After a given time, the MIC value was read. The MIC concentration expressed in µM was the first concentration of the tested compounds at which growth inhibition of the test strain was observed.

The subject of data set [9] is Staphylococcus aureus ATCC 25923. The data set is described as above. In kind it is cell-based. The settings on record: ATCC25923, 37 °C, 18 h. The protocol: as §2
The test system of data set [10] is Staphylococcus aureus ATCC 29737. Described as above. In kind it is cell-based. The settings on record: ATCC29737, 37 °C, 18 h. The procedure:
as §2

Consider `CC(O)COC[C@H]1O[C@@H]2O[C@H]3[C@H](O)[C@@H](O)[C@@H](O[C@H]4[C@H](O)[C@@H](O)[C@@H](O[C@H]5[C@H](O)[C@@H](O)[C@@H](O[C@H]6[C@H](O)[C@@H](O)[C@@H](O[C@H]7[C@H](O)[C@@H](O)[C@@H](O[C@H]8[C@H](O)[C@@H](O)[C@@H](O[C@H]1[C@H](O)[C@H]2O)O[C@@H]8COCC(C)O)O[C@@H]7COCC(C)O)O[C@@H]6COCC(C)O)O[C@@H]5COCC(C)O)O[C@@H]4COCC(C)O)O[C@@H]3COCC(C)O` (stereo partly drawn) [HP-β-CD, (2-Hydroxypropyl)-β-cyclodextrin], for which, in the data set with HaCaT cells (24 h, 3.9-995.6 µg/mL), the “cytotoxicity (maximum over tested concentrations)” value was “up to 6.6% ± 7.2”. For the same molecule, the “Non-cytotoxic concentration (IC0)” value in the data set on HaCaT cells (24 h exposure) is on record as at most 31.1 µg/mL; in the data set with HaCaT cells (48 h exposure) it was at most 3.9 µg/mL. Besides, the zone of inhibition at 2.5 µM in [1], in [2], in data set [3], in [4], in [5] and in data set [6] was 0 mm each time. The zone of inhibition at 2.5 µM in [7] came to 0 mm. Moreover, the MIC in data set [8], in [9] and in data set [10] was 2.5 µM in each case.

The values above are taken from article PMC10574185, “Encapsulation and Biological Activity of Hesperetin Derivatives with HP-β-CD” (Molecules, 2023).
